Assay results from patent US8367690B2, “Aminopyridine derivatives having aurora a selective inhibitory action” (Vertex Pharmaceuticals Inc., priority 2009, dated 2013).
Where a name gives a salt, the structure may show the parent alone.

Tests used:
[1] = target: T1, His-tagged human Aurora A (Homo sapiens, UniProt O14965); experiment: Aurora A inhibitory activity (IMAP fluorescence polarization phosphorylation assay); assay type: biochemical; conditions: 20 μM ATP, 100 nM peptide substrate, 30° C. for 120 minutes
T1 construct: His (N); made in house; host or cells: Escherichia coli BL21-CodonPlus(DE3)-RIL
T1 sequence (O14965 1-403): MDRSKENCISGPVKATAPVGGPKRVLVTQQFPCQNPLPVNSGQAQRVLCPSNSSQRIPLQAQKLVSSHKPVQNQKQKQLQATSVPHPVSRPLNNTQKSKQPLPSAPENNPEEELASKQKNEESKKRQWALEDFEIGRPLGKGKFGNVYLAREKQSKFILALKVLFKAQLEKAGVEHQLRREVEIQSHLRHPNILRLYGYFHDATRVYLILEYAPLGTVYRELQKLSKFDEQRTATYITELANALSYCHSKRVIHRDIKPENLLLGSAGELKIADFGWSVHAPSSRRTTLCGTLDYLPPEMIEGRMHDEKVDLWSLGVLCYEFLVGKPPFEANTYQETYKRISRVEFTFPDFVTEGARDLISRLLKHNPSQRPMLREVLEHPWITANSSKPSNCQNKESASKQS
Text: cDNA of N-terminal His-tagged human Aurora A was integrated into an expression vector, which was then highly expressed in Escherichia coli BL21-CodonPlus(DE3)-RIL cells. The Escherichia coli was harvested and lysed, and then the His-tagged human Aurora A protein was applied onto a nickel chelate column and eluted from the column with imidazole. The active fractions were desalted with a desalting column to give a purified enzyme.
For measurement of the activity of Aurora A, the substrate used was a synthetic peptide (5-FAM (5-carboxyfluorescein)-γ-aminobutyric acid-Ala-Leu-Arg-Arg-Ala-Ser-Leu-Gly-NH2) (SEQ.ID.NO.:1), which was purchased from Toray Research Center, Inc.
For the phosphorylation reaction, the method by Upstate, Inc. [Kinase Profiler™ Assay Protocols] was referred to, and phosphorylation of the substrate was detected using IMAP® technology (Molecular Devices, Co. Ltd.) (Gaudet E W. et. al, J. Biomol. Screen, 8, 164-175(2003)). Concretely, the phosphorylation reaction and the detection were carried out as follows:
The phosphorylation reaction was conducted using 384 well plate, and the reaction volume was 10 μl/well. The reaction buffer is comprised of 50 mM Tris-chloride buffer (pH 7.4), 15 mM magnesium acetate, and 0.2 mM ethylenediamine-N,N,N′,N′-tetraacetic acid (EDTA). Thereto, the purified Aurora A protein, 100 nM of the peptide substrate, and 20 μM of adenosine 5′-triphosphate (ATP) were added, and then the reaction was carried out at 30° C. for 120 minutes.
Thereafter, in order to terminate and detect the reaction, 30 μl of the IMAP (registered trademark) binding reagent (IMAP Progressive Binding Reagent, R7284) that had been diluted (1:400) in the lx IMAP binding buffer A (IMAP Progressive Binding Buffer A, 5× stock, R7282) was added to each well. The solution stood still for 60 minutes in the dark, and then fluorescence polarization was measured using a high-end microplate reader (excitation wavelength: 485 nm; emission wavelength: 520 nm).
(§1) The compound to be tested was added to the reaction system such that a dilution series of the compound in dimethylsulfoxide (DMSO) was prepared, and then 0.5 μL of this solution was added for the testing to each well. Each control well was provided by adding 0.5 μL of DMSO to the well in place of the DMSO solution containing the compound to be tested.
(§2) Using the above method (in the measurement of activity of Aurora B, Method A was used), the results for measurement of the activities of Aurora A and Aurora B were obtained as shown in Table 1. […] Similar results are obtained when Method B is used in the measurement of activity of Aurora B.

[2] = target: T2, GST-tagged human Aurora B(AurB)/His-tagged human INCENP complex proteins (Homo sapiens, UniProt Q96GD4); experiment: Aurora B inhibitory activity, Method A (IMAP assay development kit); assay type: biochemical; conditions: 40 μM ATP, 100 nM substrate, 25° C. for 45 minutes
T2 construct: GST; purchased Curia Biosciences, Inc
Experimental: An assay development kit for IMAP (registered trademark) (Aurora B), purchased from Curia Biosciences, Inc., was used for phosphorylation reaction, and the phosphorylation of a substrate was detected using the IMAP technology. The assay development kit used is comprised of an assay buffer, GST-tagged human Aurora B(AurB)/His-tagged human INCENP complex proteins (amino acid sequence: 803-916, AAU04398.1), and an ATP/substrate solution. Using the same, the phosphorylation reaction was conducted in accordance with a partially revised protocol attached to the kit, and then the phosphorylation of the substrate was detected using the IMAP technology.
For the phosphorylation reaction, 384 well plate was used, and the reaction volume was 10 μl/well. The composition of the reaction buffer (assay buffer) is comprised of 20 mM of HEPES buffer (pH 7.4), 0.01% Tween-20, and 2 mM of dithiothreitol (DTT). Thereto, AurB/INCENP complex protein, 100 nM of the substrate, and 40 μM of ATP, and 1 mM of magnesium salt were added, and then the reaction was conducted at 25° C. for 45 minutes. Thereafter, in order to terminate and detect the reaction, 30 μl of the IMAP (registered trademark) binding reagent (IMAP Progressive Binding Reagent, R7284) that had been diluted (1:400) in the lx IMAP binding buffer A (IMAP Progressive Binding Buffer A, 5× stock, R7282) was added to each well. The solution stood still for 60 minutes in the dark, and then fluorescence polarization was measured using a high-end microplate reader (excitation wavelength: 485 nm; emission wavelength: 520 nm).
as §1, with “DMSO” for “dimethylsulfoxide (DMSO)”
as §2

T2 sequence (Q96GD4 whole entry): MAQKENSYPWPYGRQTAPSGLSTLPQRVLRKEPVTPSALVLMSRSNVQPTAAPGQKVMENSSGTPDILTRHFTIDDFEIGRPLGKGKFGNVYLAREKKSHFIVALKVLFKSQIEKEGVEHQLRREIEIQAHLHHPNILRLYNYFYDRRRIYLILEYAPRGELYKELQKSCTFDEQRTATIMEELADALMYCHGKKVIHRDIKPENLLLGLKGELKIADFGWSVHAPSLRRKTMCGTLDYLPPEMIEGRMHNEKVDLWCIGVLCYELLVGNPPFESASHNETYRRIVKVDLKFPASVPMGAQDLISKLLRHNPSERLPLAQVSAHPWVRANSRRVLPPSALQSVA
T2 sequence (Q9NQS7 803-916 partner limits assumed): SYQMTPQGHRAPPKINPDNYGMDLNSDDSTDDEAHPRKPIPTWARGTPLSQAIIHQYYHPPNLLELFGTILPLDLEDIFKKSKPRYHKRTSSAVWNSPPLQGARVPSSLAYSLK

Cc1cc(Nc2cc[nH]n2)nc(N2C[C@H](C(=O)O)C[C@H](c3ccccc3)C2)n1 (relative stereo) [Example 10, cis-1-[4-methyl-6-(1H-pyrazol-5-ylamino)pyrimidin-2-yl]-5-phenylpiperidine-3-carboxylic acid trifluoroacetate]
IC50 [1]: 7.8 nM | IC50 [2]: 7910 nM

Cc1cc(Nc2cc(C3CC3)[nH]n2)nc(N2C[C@H](C(=O)O)C[C@H](C3CCCCC3)C2)n1 (stereo in doubt) [Example 21, (3R*,5R*)-5-cyclohexyl-1-{4-[(3-cyclopropyl-1H-pyrazol-5-yl)amino]-6-methylpyrimidin-2-yl}piperidine-3-carboxylic acid trifluoroacetate]
IC50 [1]: 0.81 nM | IC50 [2]: 275 nM

Cc1cc(Nc2cc[nH]n2)nc(N2C[C@H](NC(=O)OC(C)(C)C)C[C@@H](C(=O)O)C2)n1 (relative stereo) [Example 6, trans-5-[(tert-butoxycarbonyl)amino]-1-[4-methyl-6-(1H-pyrazol-5-ylamino)pyrimidin-2-yl]piperidine-3-carboxylic acid]
IC50 [1]: 55 nM | IC50 [2]: > 10000 nM

Cc1cc(Nc2cc(C3CC3)[nH]n2)nc(N2C[C@H](CC(=O)O)C[C@H](C3CCCCC3)C2)n1 (stereo in doubt) [Example 23, [(3S*,5R*)-5-cyclohexyl-1-{4-[(3-cyclopropyl-1H-pyrazol-5-yl)amino]-6-methylpyrimidin-2-yl}piperidin-3-yl]acetic acid]
IC50 [1]: 4 nM | IC50 [2]: 2680 nM

Cc1cc(Nc2cc[nH]n2)nc(N2C[C@@H](NC(=O)OC(C)(C)C)C[C@@H](C(=O)O)C2)n1 (relative stereo) [Example 8, cis-5-[(tert-butoxycarbonyl)amino]-1-[4-methyl-6-(1H-pyrazol-5-ylamino)pyrimidin-2-yl]piperidine-3-carboxylic acid]
IC50 [1]: 9.1 nM | IC50 [2]: 7390 nM

Cc1cc(Nc2cc(C3CC3)[nH]n2)nc(N2C[C@@H](C(=O)O)C[C@@H](C3CCCCC3)C2)n1 (stereo in doubt) [Example 20, (3S*,5S*)-5-cyclohexyl-1-{4-[(3-cyclopropyl-1H-pyrazol-5-yl)amino]-6-methylpyrimidin-2-yl}piperidine-3-carboxylic acid trifluoroacetate]
IC50 [1]: 2.4 nM | IC50 [2]: 1150 nM

Cc1cc(Nc2cc[nH]n2)nc(N2C[C@H](C(=O)O)C[C@H](C3CCCCC3)C2)n1 (relative stereo) [Example 13, cis-5-cyclohexyl-1-[4-methyl-6-(1H-pyrazol-5-ylamino)pyrimidin-2-yl]piperidine-3-carboxylic acid trifluoroacetate]
IC50 [1]: 1.1 nM | IC50 [2]: 6620 nM

Cc1cc(Nc2cc(C3CC3)[nH]n2)nc(N2C[C@@H](CC(=O)O)C[C@@H](C3CCCCC3)C2)n1 (stereo in doubt) [Example 24, [(3R*,5S*)-5-cyclohexyl-1-{4-[(3-cyclopropyl-1H-pyrazol-5-yl)amino]-6-methylpyrimidin-2-yl}piperidin-3-yl]acetic acid]
IC50 [1]: < 0.3 nM | IC50 [2]: 350 nM
